In patent US20260242391A1 (priority 2023, published 2026) one finds EC50 and IC50 data, which are given here for 22 compounds.

One data set has as its system HL-60. Kind of data set: HL-60 differentiation potency. The format is cell-based. The following applies: Homo sapiens.
The nature of another data set: in vitro. The following applies: human.

Bounds are passed on as bounds.

`C[C@H]1[C@@H](OCc2ccc(C(=O)O)c(F)c2)O[C@@H]2O[C@@]3(C)CC[C@H]4[C@H](C)CC[C@@H]1[C@@]24OO3` [Compound 24, 2-fluoro-4-((((3R,5aS,6R,8aS, 9R,10S,12R, 12aR)-3,6,9-trimethyldeca-hydro-12H-3,12-epoxy[1,2]dioxepino[4,3-i]isochromen-10-yl)oxy)methyl) benzoic acid] yielded a concentration giving a half-maximal response (EC50) in the data set on HL-60 of 210 nM. The compound further came in with a half-inhibitory concentration (IC50) in “in vitro” of over 20000 nM.
Taken in the same sequence, the figures for `C[C@H]1[C@@H](Oc2ccc(C(=O)O)c(F)c2)O[C@H]2O[C@@]3(C)CC[C@H]4[C@H](C)CC[C@@H]1[C@@]24OO3` [Compound 25, 2-fluoro-4-(((3R,5aS,6R,8aS, 9R,10S,12S, 12aR)-3,6,9-trimethyldeca-hydro-12H-3,12-epoxy[1,2]dioxepino[4,3-i]isochromen-10-yl)oxy)benzoic acid] were 217 nM and over 20000 nM.
Taken in the same sequence, the figures for `C[C@H]1[C@@H](Oc2ccc(CC(=O)O)c(F)c2)O[C@@H]2O[C@@]3(C)CC[C@H]4[C@H](C)CC[C@@H]1[C@@]24OO3` [Compound 26, 2-(2-fluoro-4-(((3R,5aS,6R, 8aS,9R,10S,12R, 12aR)-3,6,9-trimethyldeca-hydro-12H-3,12-epoxy[1,2]dioxepino[4,3-i]isochromen-10-yl)oxy)phenyl) acetic acid] were 225 nM and over 20000 nM.
Taken in the same sequence, the figures for `C[C@H]1[C@@H](Oc2ccc(F)c(CC(=O)O)c2)O[C@@H]2O[C@@]3(C)CC[C@H]4[C@H](C)CC[C@@H]1[C@@]24OO3` [Compound 27, 2-(2-fluoro-5-(((3R,5aS,6R, 8aS,9R,10S,12R, 12aR)-3,6,9-trimethyldeca-hydro-12H-3,12-epoxy[1,2]dioxepino[4,3-i]isochromen-10-yl)oxy)phenyl) acetic acid] were 239 nM and over 20000 nM.
In turn, `C[C@H]1[C@H](NCCS(=O)(=O)C(F)(F)F)O[C@@H]2O[C@@]3(C)CC[C@H]4[C@H](C)CC[C@@H]1[C@@]24OO3` [Compound 28, (3R,5aS,6R,8aS, 9R,10R,12R, 12aR)-3,6,9-trimethyl-N-(2-((trifluoromethyl)sulfonyl)ethyl) decahydro-12H-3,12-epoxy[1,2] dioxepino[4,3-i] isochromen-10-amine] registered an EC50 in the data set with HL-60 of 256 nM. The 50% inhibitory concentration (IC50) in the data set “in vitro” is 446 nM.
Taken in the same sequence, the figures for `C[C@H]1[C@@H](OCc2cc(F)c(C(=O)O)c(F)c2)O[C@@H]2O[C@@]3(C)CC[C@H]4[C@H](C)CC[C@@H]1[C@@]24OO3` [Compound 29, 2,6-difluoro-4-((((3R,5aS,6R, 8aS,9R,10S,12R, 12aR)-3,6,9-trimethyldeca-hydro-12H-3,12-epoxy[1,2]dioxepino[4,3-i]isochromen-10-yl)oxy)methyl) benzoic acid] were 283 nM and over 20000 nM.
Taken in the same sequence, the figures for `C[C@H]1[C@@H](OCc2ccc(C(N)=O)cc2)O[C@@H]2O[C@@]3(C)CC[C@H]4[C@H](C)CC[C@@H]1[C@@]24OO3` [Compound 30, 4-((((3R,5aS, 6R,8aS,9R,10S, 12R,12aR)-3,6,9-trimethyldeca-hydro-12H-3,12-epoxy[1,2]dioxepino[4,3-i]isochromen-10-yl)oxy)methyl) benzamide] were 300 nM and 3520 nM.
Taken in the same sequence, the figures for `C[C@H]1[C@@H](OCc2ccc(C(=O)O)c(F)c2F)O[C@@H]2O[C@@]3(C)CC[C@H]4[C@H](C)CC[C@@H]1[C@@]24OO3` [Compound 31, 2,3-difluoro-4-((((3R,5aS,6R, 8aS,9R,10S,12R, 12aR)-3,6,9-trimethyldeca-hydro-12H-3,12-epoxy[1,2]dioxepino[4,3-i]isochromen-10-yl)oxy)methyl) benzoic acid] were 324 nM and over 20000 nM.
The compound `C[C@H]1[C@@H](OCc2ccc(C(=O)O)o2)O[C@@H]2O[C@@]3(C)CC[C@H]4[C@H](C)CC[C@@H]1[C@@]24OO3` [Compound 32, 5-((((3R,5aS,6R, 8aS,9R,10S,12R, 12aR)-3,6,9-trimethyldeca-hydro-12H-3,12-epoxy[1,2]dioxepino[4,3-i]isochromen-10-yl)oxy)methyl) furan-2-carboxylic acid] came in with an EC50 in the data set on HL-60 of 333 nM. In “in vitro”, this compound yielded a half-maximal inhibitory concentration (IC50) of over 20000 nM.
`C[C@H]1[C@@H](OCc2ccc(C(=O)O)c(Cl)c2)O[C@@H]2O[C@@]3(C)CC[C@H]4[C@H](C)CC[C@@H]1[C@@]24OO3` [Compound 33, 2-chloro-4-((((3R,5aS,6R, 8aS,9R,10S,12R, 12aR)-3,6,9-trimethyldeca-hydro-12H-3,12-epoxy[1,2]dioxepino[4,3-i]isochromen-10-yl)oxy)methyl) benzoic acid] registered an EC50 with HL-60 of 343 nM. The IC50 in “in vitro” is over 20000 nM.
Taken in the same sequence, the figures for `C[C@H]1[C@@H](OCc2cccc(CC(=O)O)c2)O[C@@H]2O[C@@]3(C)CC[C@H]4[C@H](C)CC[C@@H]1[C@@]24OO3` [Compound 34, 2-(3-((((3R,5aS,6R, 8aS,9R,10S,12R, 12aR)-3,6,9-trimethyldeca-hydro-12H-3,12-epoxy[1,2]dioxepino[4,3-i]isochromen-10-yl)oxy)methyl)phenyl)acetic acid] were 480 nM and over 20000 nM.
The compound `COc1cc(CO[C@H]2O[C@@H]3O[C@@]4(C)CC[C@H]5[C@H](C)CC[C@@H]([C@H]2C)[C@@]35OO4)ccc1C(=O)O` [Compound 35, 2-methoxy-4-((((3R,5aS,6R, 8aS,9R,10S,12R, 12aR)-3,6,9-trimethyldeca-hydro-12H-3,12-epoxy[1,2]dioxepino[4,3-i]isochromen-10-yl)oxy)methyl) benzoic acid] yielded an EC50 in the data set with HL-60 of 481 nM. For the same compound, the IC50 in the data set “in vitro” is over 20000 nM.
Taken in the same sequence, the figures for `C[C@H]1[C@@H](OCCc2ccc(C(=O)O)cc2)O[C@@H]2O[C@@]3(C)CC[C@H]4[C@H](C)CC[C@@H]1[C@@]24OO3` [Compound 36, 4-(2-(((3R,5aS,6R,8aS, 9R,10S,12R, 12aR)-3,6,9-trimethyldeca-hydro-12H-3,12-epoxy[1,2]dioxepino[4,3-i]isochromen-10-yl)oxy)ethyl) benzoic acid] were 526 nM and over 20000 nM.
Taken in the same sequence, the figures for `Cc1cc(CN[C@@H]2O[C@@H]3O[C@@]4(C)CC[C@H]5[C@H](C)CC[C@@H]([C@H]2C)[C@@]35OO4)cc(C)n1` [Compound 37, (3R,5aS,6R,8aS, 9R,10R,12R, 12aR)-N-((2,6-dimethylpyridin-4-yl)methyl)-3,6,9-trimethyldeca-hydro-12H-3,12-epoxy[1,2] dioxepino[4,3-i] isochromen-10-amine] were 555 nM and 590 nM.
Taken in the same sequence, the figures for `C[C@H]1[C@@H](OCc2ccc(-c3nn[nH]n3)cc2)O[C@@H]2O[C@@]3(C)CC[C@H]4[C@H](C)CC[C@@H]1[C@@]24OO3` [Compound 38, 5-(4-((((3R,5aS,6R,8aS, 9R,10S,12R, 12aR)-3,6,9-trimethyldeca-hydro-12H-3,12-epoxy[1,2]dioxepino[4,3-i]isochromen-10-yl)oxy)methyl)phenyl)-2H-tetrazole] were 616 nM and 13100 nM.
In the data set on HL-60, `C[C@H]1[C@H](OCc2ccc(C(=O)O)c(F)c2)O[C@@H]2O[C@@]3(C)CC[C@H]4[C@H](C)CC[C@@H]1[C@@]24OO3` [Compound 39, 2-fluoro-4-((((3R,5aS,6R,8aS, 9R,10R,12R, 12aR)-3,6,9-trimethyldeca-hydro-12H-3,12-epoxy[1,2]dioxepino[4,3-i]isochromen-10-yl)oxy)methyl) benzoic acid] had an EC50 of 631 nM. In “in vitro”, the 50% inhibitory concentration (IC50) was over 20000 nM.
Taken in the same sequence, the figures for `C[C@H]1[C@H](OC[C@H]2CC[C@H](C(=O)O)CC2)O[C@@H]2O[C@@]3(C)CC[C@H]4[C@H](C)CC[C@@H]1[C@@]24OO3` [Compound 40, (1R,4r)-4-((((3R,5aS,6R,8aS, 9R,10R,12R, 12aR)-3,6,9-trimethyldeca-hydro-12H-3,12-epoxy[1,2]dioxepino[4,3-i]isochromen-10-yl)oxy)methyl) cyclohexane-1-carboxylic acid] were 680 nM and over 20000 nM.
In the case of `Cc1cc(CO[C@H]2O[C@@H]3O[C@@]4(C)CC[C@H]5[C@H](C)CC[C@@H]([C@H]2C)[C@@]35OO4)ccc1C(=O)O` [Compound 41, 2-methyl-4-((((3R,5aS,6R, 8aS,9R,10S,12R, 12aR)-3,6,9-trimethyldeca-hydro-12H-3,12-epoxy[1,2]dioxepino[4,3-i]isochromen-10-yl)oxy)methyl) benzoic acid], in the data set with HL-60, the concentration giving a half-maximal response (EC50) is 735 nM. For the same compound, the half-inhibitory concentration (IC50) in “in vitro” was over 20000 nM.
Taken in the same sequence, the figures for `C[C@H]1[C@H](OCC2CCC(C(=O)O)CC2)O[C@@H]2O[C@@]3(C)CC[C@H]4[C@H](C)CC[C@@H]1[C@@]24OO3` (stereo partly drawn) [Compound 42, (1S,4s)-4-((((3R,5aS,6R, 8aS,9R,10R,12R, 12aR)-3,6,9-trimethyldeca-hydro-12H-3,12-epoxy[1,2]dioxepino[4,3-i]isochromen-10-yl)oxy)methyl) cyclohexane-1-carboxylic acid] were 782 nM and over 20000 nM.
Taken in the same sequence, the figures for `C[C@H]1[C@@H](OC[C@H]2CC[C@H](C(=O)O)CC2)O[C@@H]2O[C@@]3(C)CC[C@H]4[C@H](C)CC[C@@H]1[C@@]24OO3` [Compound 43, (1S,4r)-4-((((3R,5aS,6R, 8aS,9R,10S,12R, 12aR)-3,6,9-trimethyldeca-hydro-12H-3,12-epoxy[1,2]dioxepino[4,3-i]isochromen-10-yl)oxy)methyl) cyclohexane-1-carboxylic acid] were 892 nM and over 20000 nM.
For the compound `Cc1cc(C(=O)O)ccc1CO[C@@H]1O[C@@H]2O[C@@]3(C)CC[C@H]4[C@H](C)CC[C@@H]([C@H]1C)[C@@]24OO3` [Compound 44, 3-methyl-4-((((3R,5aS,6R,8aS, 9R,10R,12R, 12aR)-3,6,9-trimethyldeca-hydro-12H-3,12-epoxy[1,2]dioxepino[4,3-i]isochromen-10-yl)oxy)methyl) benzoic acid], it took 1010 nM to reach a half-maximal effect with HL-60 (EC50). In “in vitro”, this compound came in with an IC50 of over 20000 nM.
Compound `C[C@H]1[C@H](NCc2cnn(C)c2)O[C@@H]2O[C@@]3(C)CC[C@H]4[C@H](C)CC[C@@H]1[C@@]24OO3` [Compound 46, (3R,5aS,6R,8aS, 9R,10R,12R, 12aR)-3,6,9-trimethyl-N-((1-methyl-1H-pyrazol-4-yl)methyl)decahydro-12H-3,12-epoxy[1,2] dioxepino[4,3-i] isochromen-10-amine] gave an EC50 in the data set on HL-60 of 1460 nM. Besides, half-maximal inhibition in “in vitro” (IC50) required 4380 nM.

For orientation: EC50 means the midpoint of the concentration-response curve. A word on the IC50: it is the concentration that gives 50% inhibition.
